Laboratory results taken from EPA's ToxRefDB 2.

What was measured:
dog = conditions: Subchronic oral toxicity in nonrodent, beagle, Feed, dose end: 90 day, group: systemic
rat [1] = conditions: Prenatal developmental toxicity study, sprague dawley, Oral, Gavage/Intubation, dose end: 16 GD
rat [2] = conditions: Combined chronic toxicity/carcinogenicity, sprague dawley, Oral, Feed, dose end: 2 year, group: systemic
rabbit = conditions: Prenatal developmental toxicity study, new zealand white, Oral, Gavage/Intubation, dose end: 19 GD
rat [3] = conditions: Prenatal developmental toxicity study, sprague dawley, Oral, Feed, dose end: 16 GD
rat [4] = conditions: Prenatal developmental toxicity study, sprague dawley, Oral, Gavage/Intubation, dose end: 16 GD; remark: listed apart in the source
rat [5] = conditions: Multigenerational reproductive toxicity study, other, Oral, Feed, dose end: 2 generation
rat [6] = conditions: Subchronic oral toxicity in rodents, sprague dawley, Feed, dose end: 90 day, group: systemic
[7] = systemic / pathology microscopic / stomach / hyperplasia
[8] = group: developmental, developmental / developmental malformation / kidney / small renal papilla + developmental / developmental malformation / ureter / distended
[9] = group: developmental, developmental / developmental malformation / kidney / small renal papilla + developmental / developmental malformation / ureter / distended…
[10] = group: maternal, systemic / in life observation / body weight / body weight gain + systemic / in life observation / food consumption / food consumption + …
[11] = systemic / organ weight / liver / relative to body weight + systemic / pathology microscopic / liver / hypertrophy
[12] = systemic / organ weight / liver / relative to body weight + systemic / pathology microscopic / liver / hypertrophy + systemic / clinical …
[13] = group: developmental, systemic / in life observation / body weight / fetal weight
[14] = group: maternal, reproductive / reproductive performance / aborted / aborted + reproductive / reproductive performance / resorptions / resorptions + systemic…
[15] = group: developmental, developmental / developmental malformation / bone / extra ossification site + developmental / developmental malformation / bone / incomplete…
[16] = group: maternal, reproductive / reproductive performance / resorptions / resorptions + systemic / in life observation / food consumption / food consumption…
[17] = group: developmental, developmental / developmental malformation / kidney / absent renal papilla + developmental / developmental malformation / ureter / …
[18] = group: maternal, systemic / organ weight / liver / relative to body weight
[19] = group: maternal, systemic / organ weight / liver / relative to body weight + systemic / in life observation / body weight / body weight gain + systemic / in …
[20] = group: offspring, developmental / offspring survival late / viability index / viability index
[21] = group: offspring, developmental / offspring survival late / viability index / viability index + systemic / in life observation / body weight / offspring (pup…
[22] = group: parental, systemic / pathology microscopic / liver / hypertrophy + systemic / in life observation / body weight / body weight + systemic / pathology …
[23] = group: parental, systemic / pathology microscopic / liver / hypertrophy + systemic / in life observation / mortality / mortality
[24] = group: reproductive, reproductive / reproductive performance / gestational length / gestational length
[25] = group: reproductive, reproductive / reproductive performance / gestational length / gestational length + reproductive / offspring survival early / litter size / …

Compound `C[Si](Cn1cncn1)(c1ccc(F)cc1)c1ccc(F)cc1` [Flusilazole] has an NOAEL (dog; systemic / organ weight / liver / absolute + systemic / organ weight / liver / relative to body weight + systemic / clinical chemistry / …) of 0.9 mg/kg/day, an LOAEL (dog; systemic / organ weight / liver / absolute + systemic / organ weight / liver / relative to body weight + systemic / pathology microscopic / …) of 4.3 mg/kg/day and an LEL (dog; [7]) of 0.9 mg/kg/day. The NEL (dog; [7]) was < 0.9 mg/kg/day, the LEL (rat [1]; [8]) was 10 mg/kg/day and the LOAEL (rat [1]; [8]) was 10 mg/kg/day. It also gave an NEL (rat [1]; [9]) of 2 mg/kg/day, an NOAEL (rat [1]; [9]) of 2 mg/kg/day and an LEL (rat [1]; [10]) of 100 mg/kg/day. The LOAEL (rat [1]; [10]) was 100 mg/kg/day, the NEL (rat [1]; [10]) was 10 mg/kg/day and the NOAEL (rat [1]; [10]) was 10 mg/kg/day. It also gave an LEL (rat [2]; [11]) of 2.6 mg/kg/day, an LOAEL (rat [2]; [11]) of 2.6 mg/kg/day and an NEL (rat [2]; [12]) of 0.53 mg/kg/day. For the same compound, the NOAEL (rat [2]; [12]) was 0.53 mg/kg/day, the LEL (rabbit; [13]) was 35 mg/kg/day and the LOAEL (rabbit; [13]) was 35 mg/kg/day. It also gave an NEL (rabbit; [13]) of 12 mg/kg/day, an NOAEL (rabbit; [13]) of 12 mg/kg/day and an LEL (rabbit; [14]) of 35 mg/kg/day. For the same compound, the LOAEL (rabbit; [14]) was 35 mg/kg/day, the NEL (rabbit; [14]) was 12 mg/kg/day and the NOAEL (rabbit; [14]) was 12 mg/kg/day. For the same compound, the LOAEL (rat [3]; [15]) was 300 ppm, the NEL (rat [3]; [15]) was 50 ppm and the NOAEL (rat [3]; [15]) was 100 ppm. The LEL (rat [3]; group: developmental, developmental / developmental malformation / bone / extra ossification site + developmental / developmental malformation / bone / unossified) was 100 ppm, the LOAEL (rat [3]; group: maternal, reproductive / reproductive performance / resorptions / resorptions + systemic / in life observation / food consumption / food consumption) was 300 ppm and the LEL (rat [3]; [16]) was 300 ppm. The NEL (rat [3]; [16]) was 100 ppm, the NOAEL (rat [3]; [16]) was 100 ppm and the LEL (rat [4]; [17]) was 0.4 mg/kg/day. For the same compound, the LOAEL (rat [4]; [17]) was 0.4 mg/kg/day, the NEL (rat [4]; [17]) was < 0.4 mg/kg/day and the NOAEL (rat [4]; [17]) was < 0.4 mg/kg/day. The LEL (rat [4]; [18]) was 50 mg/kg/day, the LOAEL (rat [4]; [18]) was 50 mg/kg/day and the NEL (rat [4]; [19]) was 10 mg/kg/day. For the same compound, the NOAEL (rat [4]; [19]) was 10 mg/kg/day, the NEL (rat [5]; [20]) was 3.5 mg/kg/day and the NOAEL (rat [5]; [20]) was 3.5 mg/kg/day. The LEL (rat [5]; [21]) was 17.5 mg/kg/day, the LOAEL (rat [5]; [21]) was 17.5 mg/kg/day and the LEL (rat [5]; [22]) was 3.5 mg/kg/day. It also gave an LOAEL (rat [5]; [22]) of 3.5 mg/kg/day, an NEL (rat [5]; [23]) of 0.35 mg/kg/day and an NOAEL (rat [5]; [23]) of 0.35 mg/kg/day. For the same compound, the NEL (rat [5]; [24]) was 3.5 mg/kg/day, the NOAEL (rat [5]; [24]) was 3.5 mg/kg/day and the LEL (rat [5]; [25]) was 17.5 mg/kg/day. For the same compound, the LOAEL (rat [5]; [25]) was 17.5 mg/kg/day, the LOAEL (rat [6]; systemic / clinical chemistry / cholesterol / cholesterol + systemic / pathology microscopic / urinary bladder / hyperplasia) was 27 mg/kg/day and the NOAEL (rat [6]; systemic / clinical chemistry / cholesterol / cholesterol + systemic / pathology microscopic / urinary bladder / hyperplasia + systemic / …) was 9 mg/kg/day. For the same compound, the LEL (rat [6]; systemic / in life observation / body weight / body weight) was 11 mg/kg/day and the NEL (rat [6]; systemic / in life observation / body weight / body weight + systemic / clinical chemistry / cholesterol / cholesterol + systemic / organ …) was 2 mg/kg/day.
